The values that follow are results of earlier work, collected in patent publication US20120059599A1, “HYBRID FRAGMENT-LIGAND MODELING FOR C[…] COMPOUNDS” (UNIVERSITY OF LOUISVILLE, priority 2010, published 2012).

One series concerns Salmonella. As to conditions: reported in the CPDB.
For the next series, the system named is mammary. As to conditions: reported in the CPDB.
A further series concerns experimental animals. As to conditions: IARC.
The next series has as its system estrogen receptor. As to conditions: has been demonstrated.
For series [1] the following is noted: has been demonstrated.
The next series deals with humans. The conditions noted are these: IARC.

Take `CCNc1nc(Cl)nc(NC(C)C)n1` [Atrazine]: the Salmonella mutagenicity entry in the series on Salmonella is given as “non-mutagen”.

Regarding `Cn1c(N)nc2ncc(-c3ccccc3)cc21` [PhIP, 2-amino-1-methyl-6-phenylimidazo[4,5-b]pyridine], in the series with Salmonella, the Salmonella mutagenicity entry was “mutagen”. Further, the mammary carcinogenicity result with mammary is reported as “mammary carcinogen”. Besides, the “evidence for carcinogenicity in experimental animals” value with experimental animals is given as “antiquated evidence”. Also, in the series on estrogen receptor, the estrogen receptor ligand entry is “estrogen receptor ligand”. Moreover, the genotoxic carcinogen result in series [1] is listed as “genotoxic carcinogen”. In the series on humans, the “evidence to determine carcinogenicity in humans” value is recorded as “inadequate evidence”.
